These results are taken from patent publication US12325710B2, “Substituted 1,2,3,4,5,6-hexahydroazepino[4,5-b]indoles for treating brain disorders” (priority 2019, dated 2025).

The subject of the experiment is C57/BL6J mice. Nature of the experiment: Forced swim test (FST). Type of experiment: in vivo, mouse. The following applies: 24 h after drug administration; TBG 50 mg/kg, ketamine 3 mg/kg i.p. As for the experimental part:
Forced Swim Test (FST). Male C57/BL6J mice (9-10 weeks old at time of experiment, n=10 per condition) were obtained from the Jackson Lab and housed 4-5 mice/cage in a UCD vivarium following an IACUC approved protocol. After 1 week in the vivarium each mouse was handled for approximately 1 minute by a experimenter for 3 consecutive days leading up to the first FST. All experiments were carried out by the same experimenter who performed handling. During the FST, mice underwent a 6 min swim session in a clear Plexiglas cylinder 40 cm tall, 20 cm in diameter, and filled with 30 cm of 24±1° C. water. Fresh water was used for every mouse. After handling and habituation to the experimenter, drug-naïve mice first underwent a pretest swim to more reliably induce a depressive phenotype in the subsequent FST sessions. Immobility scores for all mice were determined after the pre-test and mice were randomly assigned to treatment groups to generate groups with similar average immobility scores to be used for the following two FST sessions. […] Experiments were video-recorded and manually scored offline. Immobility time—defined as passive floating or remaining motionless with no activity other than that needed to keep the mouse's head above water—was scored for the last 4 min of the 6 min trial.

In the case of `CNC1(c2ccccc2Cl)CCCCC1=O` (stereo not shown) [ketamine, reference compound], the “immobility in FST” value was “significantly reduced immobility”.
